From patent US10035810B2, “5,6-dihydro-4H-benzo[b]thieno-[2,3-d]azepine derivative” (PULMOCIDE LIMITED, priority 2014, dated 2018)

What was measured:
RSV A2 strain = test: RSV A2-induced CPE in HEp2 cells; format: cell-based; settings: human respiratory syncytial virus
Description: Assessment of RSV Induced CPE in HEp2 Cells
HEp2 cells were seeded (10^3/well/50 μL) in 384-well plates (Catalogue number 353962, BD Falcon, Oxford, UK) in […] containing 2 mM L-glutamine and 1 mM sodium pyruvate one day before infection. RSV A2 strain (#0709161v, NCPV, Public Health England, Wiltshire) or RSV B Washington strain (VR-1580, ATCC, Manassas, Va. 20108) virus solutions were prepared in serum free-DMEM with 2 mM L-glutamine and 1 mM sodium pyruvate, and then added (50 μL/well) to achieve a final virus concentration of 1 MOI. Simultaneously Compound (I) (0.5 μL DMSO solution) was added to 100 μL of HEp2 cell culture with virus solution to provide a final DMSO solution of 0.5%. Plates were incubated (37° C./5% CO2) for 5 days for studies using RSV A2 strain or 6 days for those using RSV B strain, and then resazurin sodium salt (5 μL of 0.03% solution; Sigma-Aldrich, Dorset, UK) was added to each well and the plate incubated for a further 6 hr (37° C./5% CO2). The fluorescence of each well [545 nm (excitation)/590 nm (emission)] was determined using a multi-scanner (Clariostar: BMG, Buckinghamshire, UK). The percentage inhibition for each well was calculated and the IC50, IC75 and IC90 values were calculated from the concentration-response curve generated for Compound (I).

HEp2 cells = test: Cell viability: resazurin assay; format: cell-based, human; settings: incubation with compound
Description: Cell Viability: Resazurin Assay
HEp2 cells were seeded in 384-well plates (10^3/well/50 μL; BD Falcon Ref 353962) in FBS DMEM (5%, containing 2 mM L-glutamine and 1 mM sodium pyruvate) one day before experimentation. Serum-free DMEM (50 μL) was added to test wells while for control wells the media was removed and sterile water (100 μL) was added. Compound (I) (0.5 μL DMSO solution) was added to give a final DMSO concentration of 0.5%. Hep2 cells were incubated with each test compound for 5 days (37° C./5% CO2 in 5% FBS) and then resazurin stock solution (5 μL; 0.03%) was added to each well and the plate incubated for a further 6 hr (37° C./5% CO2). The fluorescence of each well at 545 nm (excitation) and 590 nm (emission) was determined using a multi-scanner (Clariostar: BMG Labtech). The percentage loss of cell viability was calculated for each well relative to vehicle (0.5% DMSO) treatment.
Any apparent increase in cell viability associated with test compound treatment relative to vehicle is consequently tabulated as a negative percentage. Where appropriate, a CC50 value was calculated from the concentration-response curve generated for Compound (I).

RSV A2 = test: Virus titre in air-liquid interface (ALI) cultured bronchial epithelial cells (plaque assay); format: cell-based, respiratory syncytial virus
Description: Assessment of Virus Titre in Air-Liquid Interface (ALI) Cultured Bronchial Epithelial Cells
ALI cultured human bronchial epithelial cells were sourced from Epithelix Sàrl (Geneva, Switzerland) and maintained by changing the basal media every 3-4 days, whilst the apical surface was washed once weekly with PBS. On day 0, the apical surface of each well was washed once with sterile PBS (300 μL) and the inserts were transferred to new 24-well plates containing fresh MucilAir culture medium (780 μL; EP04MM). RSV A2 (50 μL; diluted in MucilAir culture medium to give a final MOI of 0.01) was added to cells for 1 hr (37° C./5% CO2). For the purposes of standardizing MOI calculations, each MucilAir insert was estimated to contain 2×10^5 apical facing cells per well. Virus inoculum was removed with a pipette and inserts were washed twice with sterile PBS (300 μL).
Sampling was conducted by adding sterile PBS (300 μL) to the apical surface of each well for 5 min. The apical sample was then removed and transferred to tubes containing 50% sucrose dissolved in PBS (100 μL) before being stored at −80° C. This harvesting procedure was repeated daily beginning on day 0 and concluding on day 7. […]
Virus titre was quantified by plaque assay. […] Plaques were counted by eye and confirmed using light microscopy, allowing the calculation of plaque forming units per mL.

For Cc1cnc(N2CC3(CCOCC3)C2)c(C(=O)Nc2ccc(C(=O)N3CCc4cc(C(=O)Nc5c(C)cccc5F)sc4-c4ccccc43)cc2)c1 [Compound (I), N-(2-fluoro-6-methylphenyl)-6-(4-(5-methyl-2-(7-oxa-2-azaspiro[3.5]nonan-2-yl)nicotinamido)benzoyl)-5,6-dihydro-4H-benzo[b]thieno[2,3-d]azepine-2-carboxamide], the IC50 (RSV A2 strain; HEp-2, 120 h, 1 MOI, 5 days) was 0.017 nM, the inhibition at 0.1 µg/mL (RSV A2 strain; HEp-2, at 0.1 μg/mL) was 100% and the “Effect on cell viability (in words)” value (HEp2 cells) was “No effect on cell viability”. For the same compound, the “Inhibition of RSV titre in ALI culture (in words)” value (RSV A2; early intervention, daily day 0 to day 7, 0.1 μg/mL, over 7 days) was “complete inhibition” and the “Virus titre in ALI culture (in words)” value (RSV A2; late intervention, administered from day 3, days 6 and 7 post infection) was “dramatic reduction of virus titre”.
